Tests used:
[1] = molecular target: cucumber salicylic acid binding protein; assay: Salicylic acid binding activity from cucumber; details: cucumber derived salicylic acid binding protein
Source text: Several, of the MAbs that bind to the tobacco 57 kDa protein and 280 kDa complex also recognize a 57 kDa protein in fresh homogenates from cucumbers. The salicylic acid binding activity from cucumber has similar affinity (Kd) and specificity as the tobacco salicylic acid binding protein. Like the tobacco salicylic acid binding protein, the cucumber salicylic acid binding protein also has a large native molecular weight (approximately 200 kDa). Thus, it appears that the cucumber salicylic acid binding protein is also a complex composed of multiple subunits at least one of which is probably the 57 kDa protein recognized by the MAbs made against the tobacco salicylic acid binding protein. It should be noted, however, that there may be some minor variation in molecular weight and Kd for salicylic acid binding protein from one plant species to the next. For example, cucumber derived salicylic acid binding protein appears to have an apparent average native molecular weight of about 200 kDa and a Kd of about 30±5 μM.

[2] = molecular target: T1, catalase activity of SABP (Nicotiana tabacum, UniProt P49319); assay: Catalase activity of highly purified SABP (luminol method); assay type: biochemical, tobacco; details: 0.05 h; 1 mM SA or analogue, 1 mM H2O2, 500 ng highly purified SABP
T1 sequence (P49319 1-492): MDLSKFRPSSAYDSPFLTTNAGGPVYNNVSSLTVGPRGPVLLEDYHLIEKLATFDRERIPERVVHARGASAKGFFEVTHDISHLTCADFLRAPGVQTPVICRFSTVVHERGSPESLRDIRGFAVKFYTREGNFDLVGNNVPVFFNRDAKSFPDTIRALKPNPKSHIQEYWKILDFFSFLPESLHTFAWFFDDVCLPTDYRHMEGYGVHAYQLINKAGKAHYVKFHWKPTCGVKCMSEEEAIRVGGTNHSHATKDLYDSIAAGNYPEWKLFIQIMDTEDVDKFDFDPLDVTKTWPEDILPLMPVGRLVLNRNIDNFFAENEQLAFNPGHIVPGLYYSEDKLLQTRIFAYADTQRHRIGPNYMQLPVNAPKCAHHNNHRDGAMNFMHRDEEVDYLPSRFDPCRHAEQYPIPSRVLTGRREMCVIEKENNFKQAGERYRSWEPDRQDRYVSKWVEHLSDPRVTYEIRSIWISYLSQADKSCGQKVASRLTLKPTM
Method: Aliquots (50 μl) were removed from the assay mixture at 30 second intervals to assay for amount of H2 O2 remaining using the luminol method as has been described by Warm and Laties, Phytochem. […] The tube was placed in the measuring chamber and assay was initiated with automatic injection into the mixture of 100 μl of 0.5 mM K3 Fe(CN)6 in 0.2N NH4 OH, pH 9.5. Measurements were integrated over 5 second periods. H2 O2 was calculated from the standard curve constructed with known amounts of H2 O2. Rate constants of SABP catalase activity in the presence or absence of SA or its analogues were then calculated based on a first-order mechanism.

[3] = system: guaiacol peroxidases; assay: Guaiacol peroxidase activity in tobacco leaf extracts; assay type: biochemical, Nicotiana tabacum cv. Xanthi nc
Method: Inhibition of peroxidase by SA and INA was determined by measuring the enzyme activities in extracts prepared from tobacco leaves in the absence or presence of 100 μM or 1000 μM SA or INA. Two grams of leaves from 6-8 week old tobacco plants (Nicotiana tabacum cv. Xanthi nc) grown at 22° C. in a 14 hr light cycle were homogenized under liquid nitrogen using a pestle and mortar.
Total guaiacol peroxidase activity was extracted with 100 mM potassium phosphate, pH 6.2, containing 1% (weight/volume) polyvinylpyrrolidone. In order to also extract the ionically bound cell wall isozymes, the extraction buffer was supplemented with 600 mM KCl. Extraction and centrifugation steps were as described for ascorbate peroxidase. After removal of cell debris and ammonium sulfate precipitation (85%), the extract was desalted against 50 mM potassium phosphate, pH 6, containing 25% glycerol. The extract could be stored at -20° C. without significant loss of peroxidase activity.
(§1) Guaiacol peroxidase activity was determined by the method of Chance and Maehly (Methods Enzymol. 2: 764 (1955)) using guaiacol as the substrate.
(§2) The formation of tetraguaiacol was monitored at 470 nm. The reaction mixture contained 0.25% guaiacol and 100 mM hydrogen peroxide in 20 mM potassium phosphate, pH 6.2. The amount of protein per 1 ml assay was […]. The reaction was measured for five minutes. The assay for horseradish peroxidase was identical, except that only 0.2-0.5 μg protein was used.

[4] = molecular target: T2, horseradish peroxidase (Armoracia rusticana, UniProt P00433); assay: Horseradish peroxidase activity; assay type: biochemical
T2 construct: purchased Sigma
T2 sequence (P00433 31-353): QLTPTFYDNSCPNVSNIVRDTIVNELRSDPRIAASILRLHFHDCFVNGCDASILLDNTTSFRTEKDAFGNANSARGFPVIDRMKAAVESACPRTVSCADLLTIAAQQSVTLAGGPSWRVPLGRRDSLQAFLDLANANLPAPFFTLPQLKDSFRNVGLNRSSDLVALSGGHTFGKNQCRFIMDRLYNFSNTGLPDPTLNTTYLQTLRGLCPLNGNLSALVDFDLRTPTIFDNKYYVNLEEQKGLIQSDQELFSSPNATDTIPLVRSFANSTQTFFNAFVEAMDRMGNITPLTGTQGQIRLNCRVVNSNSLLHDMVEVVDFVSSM
Method: Horseradish peroxidase (1 mg; obtained from Sigma) was dissolved in 1.5 ml 200 mM potassium phosphate, pH 6.2, containing 150 mM NaCl. Following a 15 minute incubation at room temperature, the enzyme solution was centrifuged (10,000 g, 10 minutes). After buffer exchange (PD-10, equilibrated with 25 mM potassium phosphate, pH 6.2), the protein concentration was adjusted to 0.5 mg/ml.
as §1, §2

[5] = system: plant processes; set-up: key: +: induces or enhances; -: reduces or inhibits; details: addition of salicylic acid to plants; cited from earlier work
[6] = system: resistance or PR gene expression; set-up: key: ++: indicates a high level of biological activity; +: indicates a lower level of biological activity; ±: indicates low, but detectable biological activity in some assays; -: indicates no biological activity; details: Table 3; values reported in literature; cited from earlier work

For `O=C(O)c1ccccc1O` [salicylic acid, 2-hydroxybenzoic acid], the Kd [1] was ~30 µM, the inhibition at 1000 µM [2] was 80% and the Activity ([3]; POX, 100 μM compound) was 2.7 ± 0.3 μmols of oxidized substrate mi. For the same molecule, the Inhibition ([3]; POX, 100 μM compound) was 3%, the Activity ([3]; POX, 1,000 μM compound) was 2.7 ± 0.4 μmols of oxidized substrate mi and the Inhibition ([3]; POX, 1,000 μM compound) was 3%. The Activity ([4]; HRP, 100 μM compound) was 251 ± 11 μmols of oxidized substrate mi, the inhibition at 100 µM ([4]; HRP, 100 μM compound) was -4% and the Activity ([4]; HRP, 1,000 μM compound) was 237 ± 21 μmols of oxidized substrate mi. For the same molecule, the inhibition at 1000 µM ([4]; HRP, 1,000 μM compound) was 1%, the “Effect on Adventitious root initiation” value [5] was “+” and the “Effect on Alternative pathway” value [5] was “+”. The “Effect on Disease resistance” value [5] was “+”, the “Effect on Ethylene biosynthesis” value [5] was “-” and the “Effect on Flowering” value [5] was “+”. For the same molecule, the “Effect on Fruit yield” value [5] was “+”, the “Effect on Gene regulation” value [5] was “+” and the “Effect on Glycolysis” value [5] was “+”. The “Effect on Growth inhibition” value [5] was “+”, the “Effect on Krebs cycle” value [5] was “+” and the “Effect on Leaf abscission” value [5] was “-”. The “Effect on Photonastic leaflet movement” value [5] was “+”, the “Effect on Potassium ion absorption” value [5] was “-” and the “Effect on Scotonastic leaflet movement” value [5] was “-”. For the same molecule, the “Effect on Seed germination” value [5] was “- and +”, the “Effect on Somatic embryogenesis” value [5] was “-” and the “Effect on Stomatal closure” value [5] was “-”. The “Effect on Thermogenesis” value [5] was “+”, the “Effect on Transpiration” value [5] was “-” and the “Effect on Wound response” value [5] was “-”. The Biological activity [6] was “++”.
